# Assay results from patent US10583119B2, “Compounds, compositions and methods for making the same” (Signum Biosciences, Inc., priority 2008, dated 2020).
# Like-named read-outs stand apart in the source and are kept apart here.
# Legend:
# [1] = molecular target: T1, PP2A (Homo sapiens, UniProt P67775); experiment: Phosphatase activity of PP2A using pNPP as substrate; type: biochemical; conditions: un-methylated PP2A, non-protein substrate pNPP, absence of ME and MT
# T1 construct: made in house
# Description: PP2A (10-200 nM) and pNPP (5-10 mM, Sigma) were mixed into 96-well plate (Fisher Scientific Inc.) in 50 μL of the buffer required. Reactions were performed at room temperature, and fully stopped by adding equal volume of 0.1 M EDTA. Production of p-nitrophenol […] was quantified by absorbance of reaction mixtures at 405 nm using the VMax® microplate reader (Molecular Devices).
# [2] = molecular target: T2, protein phosphatase specific protein methylesterase (MEase) (Homo sapiens, UniProt Q9Y570); experiment: PP2A demethylation with [3H]-SAM and purified proteins (methylesterase activity); type: biochemical
# T2 construct: made in house
# T2 sequence (Q9Y570 1-386): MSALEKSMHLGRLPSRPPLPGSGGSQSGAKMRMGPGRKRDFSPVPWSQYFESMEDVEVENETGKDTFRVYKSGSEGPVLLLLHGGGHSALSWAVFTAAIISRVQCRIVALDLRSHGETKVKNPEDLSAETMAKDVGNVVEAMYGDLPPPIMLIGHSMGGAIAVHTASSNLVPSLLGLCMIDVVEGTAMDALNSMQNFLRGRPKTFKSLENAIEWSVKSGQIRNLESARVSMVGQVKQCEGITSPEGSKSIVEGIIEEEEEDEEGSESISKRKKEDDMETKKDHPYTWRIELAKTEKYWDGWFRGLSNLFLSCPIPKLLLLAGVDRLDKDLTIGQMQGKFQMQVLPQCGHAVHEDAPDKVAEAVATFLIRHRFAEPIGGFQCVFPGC
# Description: PP2A (methylated and unmethylated) were eluted with 1.6 mL of Buffer A containing 350 mM NaCl. Fractions (0.2 mL each) were collected and the radioactivity in each fraction was measured using the scintillation counter (LS 6000SE, Beckman). Fractions with highest radioactivity were containing purified methylated PP2A were pooled with a total volume of 0.6 mL-0.8 mL. Purified methylated PP2A (50 nM-100 nM) was incubated with MEase (5 nM-20 nM) in 20 μl-50 μl reaction at room temperature for 30 minutes. The reaction was terminated by adding TCA (2 μl-6 μl) to a final concentration of 10%. Released [^3H]-methanol in supernatants was counted with scintillation counter (LS 6000SE, Beckman).
# [3] = molecular target: T3, protein phosphatase 2A specific methyltransferase (MTase) (Homo sapiens, UniProt Q9UIC8); experiment: PP2A methylation in 96-well plate format (methyltransferase activity); type: biochemical; conditions: purified PP2A, MTase and [3H]-SAM; read-out: MT (IC50)
# T3 construct: His; made in house
# Description: Purified PP2A, MTase and [^3H]-SAM, were incubated in reaction buffer at 37° C. At the end of the reaction, mixture was added onto the membranes of 96-well filter plate (Multiscreen™, Millipore). The membranes were then pre-wetted with 70% ethanol (50 μL/well) and then subsequently washed with water (2×200 μL/well). The reaction in each well was terminated and the proteins (5 μL-20 μL) were precipitated by adding 25% ice-cold TCA. The plate was kept on ice for 30 minutes to ensure completion of protein precipitation. Excess of the free SAM was then removed by washing with 5% cold TCA ([…]) and 70% cold ethanol (2×100 μL/well). Membranes were air-dried, radioactivity in each well was counted by TopCount^NXT scintillation counter (Packard) with 25 μL/well of Microsinct™ 20 (PerkinElmer).
# [4] = molecular target: T1, PP2A; experiment: Phosphatase activity of PP2A using phosphorylase a as substrate; type: biochemical; conditions: un-methylated PP2A, protein substrate phosphorylase a, absence of ME and MT
# Description: After the reaction, proteins were precipitated by 50% (NH4)2SO4 (final concentration) twice, and collected by centrifugation. The pellet was re-dissolved and dialyzed in a buffer containing 50 mM Tris-HCl (pH6.9) and ImM DTT for 2×2 L at 4° C. overnight. Phosphorylase a (phospho-phosphorylase b) crystallized during the dialysis. The dialysate was centrifuged 14,000 r.p.m at 4° C. for 30 minutes, the supernatant was removed and purified ^32P-labelled phosphorylase a was re-dissolved in +50% glycerol, and stored at −20° C.
# To measure PP2A's phosphatase activity, PP2A (5-20 nM) was incubated with phosphorylase a (5-10 μM) at 37° C. 10% TCA (final concentration) and was added to the reaction to precipitate proteins. Supernatant that contains free ^32P-phosphate group was added into scintillation counting solution (Ecoscint, National Diagnostics), and counted by scintillation counter (LS 6000SE, Beckman).
# [5] = test system: MPTP Mouse Model of Parkinson's Disease; experiment: MPTP-induced neurotoxicity in MPTP mouse model of Parkinson's disease (striatal tyrosine hydroxylase ELISA); type: in vivo, C57BL/6J mice; conditions: mice on control diets, relative to saline-injected mice
# From the text: MPTP (1-methyl-4-phenyl-1,2,3,6-tetrahydropyridine) is routinely used as a chemical agent that induces Parkinson's disease-like neurodegeneration in cellular and animal models. Both Parkinson's Disease and MPTP-induced neurotoxicity are associated with a number of different biomarkers including reduction of tyrosine hydroxylase levels and activity. Tyrosine hydroxylase is a key enzyme in the dopamine biosynthesis pathway as it is involved in the conversion of tyrosine to […]. Tyrosine hydroxylase activity is regulated by its phosphorylation status and PP2A is known to be involved in this regulation.
# C57BL/6J mice, aged 2-3 months were fed ad libitum, either standard rodent chow (Control), or rodent chow formulated with 0.1 g Compound I-63, or 0.001 g Compound I-63 per 100 g chow (0.1% and 0.001% Compound I-63, respectively); water was changed weekly. Mice were housed at 23° C., on a 12 hour light and dark cycle, with 6 mice per cage. After 2 weeks, 8-12 mice each from the Control, 0.1% Compound 1-63 and 0.001% Compound I-63 groups were injected with either saline, or 10 mg/kg MPTP i.e., four times, every 2 hours, on the same day. Mice were then maintained on their respective feeds for another week, at which point they were sacrificed by cervical dislocation and brains dissected for biochemical analyses.
# Striatal tyrosine hydroxylase (TH) content was measured by ELISA as follows. Ninety-six well microliter plates (Thermo Labsystems) were incubated overnight at 4° C. with monoclonal anti-TH antibody (1:500; Calbiochem) in 8 mM sodium phosphate, 2 mM potassium phosphate, and 0.14 M sodium chloride, pH 7.4 (PBS). Wells were washed four times with PBS and then blocked for 1 hour using 5% (w/v) Carnation (Nestle) nonfat dry milk in PBS. Striatal tissue samples were homogenized by sonication in PBS-0.5% Triton X-100 (PBST) with 0.25% (w/v) SDS. […] The reaction product was measured fluorometrically within the linear range of detection (excitation:emission ratio of 530:580 nm). […] Data were expressed as percent TH levels in MPTP-treated mice relative to saline-injected mice. […]
# [6] = purified methylated PP2A and MEase, read-out: ME (IC50)
# T3 sequence (Q9UIC8 whole entry): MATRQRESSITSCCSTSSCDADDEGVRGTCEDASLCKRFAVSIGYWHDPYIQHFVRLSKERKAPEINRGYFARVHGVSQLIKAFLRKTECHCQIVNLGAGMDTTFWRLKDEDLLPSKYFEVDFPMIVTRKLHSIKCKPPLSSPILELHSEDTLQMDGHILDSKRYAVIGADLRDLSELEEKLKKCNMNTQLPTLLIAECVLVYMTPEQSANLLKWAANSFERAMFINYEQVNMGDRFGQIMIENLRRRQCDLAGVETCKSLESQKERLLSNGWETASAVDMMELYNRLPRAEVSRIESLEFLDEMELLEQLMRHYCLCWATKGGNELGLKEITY
# T1 sequence (P67775 whole entry): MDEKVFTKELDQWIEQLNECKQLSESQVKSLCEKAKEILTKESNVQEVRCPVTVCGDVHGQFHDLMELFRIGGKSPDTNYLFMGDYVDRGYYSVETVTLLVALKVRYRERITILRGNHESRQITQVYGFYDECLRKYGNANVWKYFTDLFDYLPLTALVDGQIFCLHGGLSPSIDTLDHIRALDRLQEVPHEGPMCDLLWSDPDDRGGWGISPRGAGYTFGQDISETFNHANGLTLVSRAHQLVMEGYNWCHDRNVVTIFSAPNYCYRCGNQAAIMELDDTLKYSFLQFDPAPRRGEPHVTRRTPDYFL
# T1 sequence (P30153 whole entry partner): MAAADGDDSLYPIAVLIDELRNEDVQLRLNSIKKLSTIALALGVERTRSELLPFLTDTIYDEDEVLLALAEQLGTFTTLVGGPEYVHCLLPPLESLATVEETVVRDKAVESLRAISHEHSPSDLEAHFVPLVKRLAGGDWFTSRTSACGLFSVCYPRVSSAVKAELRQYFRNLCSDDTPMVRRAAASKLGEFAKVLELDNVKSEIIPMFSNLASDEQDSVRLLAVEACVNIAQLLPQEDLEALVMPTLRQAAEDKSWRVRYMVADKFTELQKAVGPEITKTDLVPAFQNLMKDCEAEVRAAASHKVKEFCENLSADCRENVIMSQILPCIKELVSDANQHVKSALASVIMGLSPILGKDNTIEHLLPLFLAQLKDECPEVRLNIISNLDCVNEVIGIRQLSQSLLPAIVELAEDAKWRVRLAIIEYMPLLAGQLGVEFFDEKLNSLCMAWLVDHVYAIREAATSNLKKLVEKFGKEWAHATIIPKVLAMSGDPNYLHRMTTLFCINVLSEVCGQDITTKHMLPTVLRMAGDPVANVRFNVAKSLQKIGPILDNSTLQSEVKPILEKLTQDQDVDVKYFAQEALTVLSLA
IC50 [1] [µM],IC50 [3] [µM],IC50 [4] [µM],"IC50 [2, 6] [µM]",Structure (SMILES),IC50 [2] [µM],reduction of tyrosine hydroxylase levels [5] [%]
10 to 100,< 10,> 100,< 10,"CCCCCCCCCCCCCCCCCC(=O)NCCc1c[nH]c2ccc(O)cc12 [Compound I-66, N-(2-(5-hydroxy-1H-indol-3-yl)ethyl)stearamide]",–,–
10 to 100,< 10,–,< 10,"CCCCCCCCCCCCCCCCCCCC(=O)NCCc1c[nH]c2ccc(OC(C)=O)cc12 [Compound I-33, 3-(2-icosanamidoethyl)-1H-indol-5-yl acetate]",–,–
> 100,< 10,–,10 to 100,"CCCCCCCCCCCCCCCCCCNC(=O)NC(Cc1c[nH]c2ccc(O)cc12)C(=O)O (centres unmarked) [Compound I-79, 3-(5-hydroxy-1H-indol-3-yl)-2-(3-octadecylureido)propanoic acid]",–,–
10 to 100,< 10,–,< 10,"CCCCCCCCCCCCCCCCNC(=O)C(Cc1c[nH]c2ccccc12)NC(=O)OC(C)(C)C (centres unmarked) [Compound I-80, tert-butyl 1-(hexadecylamino)-3-(1H-indol-3-yl)-1-oxpopran-2-ylcarbamate]",–,–
10 to 100,< 10,10 to 100,< 10,"CCCCCCCCCCCCCCCCCCCC(=O)NCCc1c[nH]c2ccc(OC(=O)CCC(=O)O)cc12 [Compound I-32, 4-{[3-(2-icosanamidoethyl)-1H-indol-5-yl]oxy}-4-oxobutanoic acid]",–,–
> 100,< 10,10 to 100,< 10,"CCCCCCCCCCCCCCCCCC(=O)NCCc1c[nH]c2ccccc12 [Compound I-65, N-(2-(1H-indol-3-yl)ethyl)stearamide]",–,–
> 100,< 10,–,< 10,"CCCCCCCCCCCCCCCCNC(=O)NC(Cc1c[nH]c2ccc(O)cc12)C(=O)O (centres unmarked) [Compound I-78, 2-(3-hexadecylureido)-3-(5-hydroxy-1H-indol-3-yl)propanoic acid]",–,–
> 100,> 100,–,> 100,"CCCCCCCCCC(=O)NCCc1c[nH]c2ccc(O)cc12 [Compound I-77, N-(2-(5-hydroxy-1H-indol-3-yl)ethyl)decanamide]",–,–
10 to 100,10 to 100,10 to 100,< 10,"CCCCCCCCCCCCCCCCCCNC(=O)NCCc1c[nH]c2ccc(O)cc12 [Compound I-31, 1-[2-(5-hydroxy-1H-indol-3-yl)ethyl]-3-octadecylurea]",–,–
10 to 100,10 to 100,10 to 100,< 10,"CCCCCCCCCCCCCCCCCCNC(=O)Cc1c[nH]c2ccc(O)cc12 [Compound I-39, 2-(5-hydroxy-1H-indol-3-yl)-N-octadecylacetamide]",–,–
10 to 100,10 to 100,10 to 100,< 10,"CCCCCCCCCCCCCCCCNC(=O)NCCc1c[nH]c2ccc(O)cc12 [Compound I-30, 3-hexadecyl-1-[2-(5-hydroxy-1H-indol-3-yl)ethyl]urea]",–,–
< 10,10 to 100,> 100,10 to 100,"CCCCCCC(O)CCCCCCCCCCC(=O)NCCc1c[nH]c2ccc(O)cc12 (centres unmarked) [Compound I-29, 12-hydroxy-N-[2-(5-hydroxy-1H-indol-3-yl)ethyl] octadecanamide]",–,–
10 to 100,< 10,> 100,< 10,"CCCCCCCCCCCCCCCCCCCC(=O)NCCc1c[nH]c2ccc(F)cc12 [Compound I-35, N-[2-(5-fluoro-1H-indol-3-yl)ethyl]icosanamide]",–,–
> 100,< 10,10 to 100,< 10,"CCCCCCCCCCCCCCCCCCCC(=O)NCCc1c[nH]c2ccccc12 [Compound I-64, N-(2-(1H-indol-3-yl)ethyl) icosanamide]",–,–
–,–,–,–,"CN1CC=C(c2ccccc2)CC1 [MPTP, 1-methyl-4-phenyl-1,2,3,6-tetrahydropyridine, reference compound]",–,60
10 to 100,–,> 100,> 100,"CCCCCCCCCCCCCCCCCCC(=O)NCCc1c[nH]c2ccc(O)cc12 [Compound I-67, N-(2-(5-hydroxy-1H-indol-3-yl)ethyl)nonadecanamide]",–,–
> 100,> 100,–,> 100,"CCCCCCCCCCCCCCCC(=O)NCCc1c[nH]c2ccc(O)cc12 [Compound I-76, N-(2-(5-hydroxy-1H-indol-3-yl)emyl)palmitamide]",–,–
10 to 100,< 10,> 100,10 to 100,"CCCCCCCCCCCCCCCCCCCC(=O)NCCc1c[nH]c2ccc(C)cc12 [Compound I-36, N-[2-(5-methyl-1H-indol-3-yl)ethyl]icosanamide]",–,–

Structure (SMILES),IC50 [1] [µM],IC50 [3] [µM],IC50 [4] [µM],"IC50 [2, 6] [µM]",IC50 [2] [µM],reduction of tyrosine hydroxylase levels [5] [%]
"CCCCCCCCCCCCCCCCCCCC(=O)N(C)CCc1c[nH]c2ccccc12 [Compound I-38, N-[2-(1H-indol-3-yl)ethyl]-N-methylicosanamide]",> 100,> 100,–,–,> 100,–
